For one data set, the target named is Cannabinoid receptor 1 (Homo sapiens, UniProt P21554). Description: Inhibition of human CB1 receptor expressed in CHOK1 cells by luciferase reporter gene assay. Format: cell-based. Also on record: concentration or dose not given beside the values. To be noted: for inhibition: CHO-K1, concentration not given here.
The test system of data set [1] is Liver microsomes. Description: Metabolic stability in human liver microsomes. Format: ADME, Microsome. A general note: Liver microsomes are a subcellular fraction often used to study metabolism.
In data set [2] the test system is Liver microsomes. Description: Metabolic stability in rat liver microsomes. Format: ADME, Microsome.
Data set [3] can be described thus: Stability in rat plasma for 30 mins. It counts as ADME, cell-free. To be noted: read-out: Stability.
The nature of data set [4]: Plasma protein binding in rat. It counts as ADME, cell-free. As to conditions: read-out: PPB (converted).
The species named for data set [5] is Homo sapiens. Description: Plasma protein binding in human. As to conditions: read-out: PPB (converted).
The species named for data set [6] is Homo sapiens. As to the kind of experiment: Stability in human plasma for 30 mins.

Experimental findings from ChEMBL document CHEMBL1221260, “Discovery of cannabinoid-1 receptor antagonists by virtual screening” (Bioorg Med Chem Lett, 2010) are described below.

Bounds are passed on as bounds.

Sequence of Cannabinoid receptor 1 (P21554 whole entry): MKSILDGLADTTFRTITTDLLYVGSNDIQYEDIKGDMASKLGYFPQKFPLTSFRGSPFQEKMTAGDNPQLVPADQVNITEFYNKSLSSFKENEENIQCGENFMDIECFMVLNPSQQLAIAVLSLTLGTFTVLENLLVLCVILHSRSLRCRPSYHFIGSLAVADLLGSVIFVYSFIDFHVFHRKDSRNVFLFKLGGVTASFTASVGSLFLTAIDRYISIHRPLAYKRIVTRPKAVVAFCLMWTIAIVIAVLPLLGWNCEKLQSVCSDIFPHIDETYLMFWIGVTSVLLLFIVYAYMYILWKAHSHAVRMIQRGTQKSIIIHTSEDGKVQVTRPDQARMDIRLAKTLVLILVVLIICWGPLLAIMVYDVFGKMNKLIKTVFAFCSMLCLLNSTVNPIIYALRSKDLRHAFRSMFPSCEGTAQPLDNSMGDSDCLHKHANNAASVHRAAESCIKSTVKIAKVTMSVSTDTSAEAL

Take `CCOC(=O)c1c(NC(=O)Cc2ccccc2)sc2c1CCN(C(=O)OCC)C2`: the inhibition (as a rule, the change of the read-out against control, counted positive when it falls) at Cannabinoid receptor 1 was 94%.
Consider `COC(=O)c1cc(S(=O)(=O)N2CCn3c2nc2ccccc23)c[nH]1`, for which, on Cannabinoid receptor 1, the inhibition was found to be 102%.
Consider `O=C(NC[C@@H]1CCCO1)c1nc(-c2ccc(Cl)cc2)n2c1CCCCC2`, for which the inhibition against Cannabinoid receptor 1 amounted to 63%.
Consider `COC(=O)c1ccc([C@@H]2CC(=O)N3C(=C2C#N)SC[C@]3(O)c2ccc(C)cc2)cc1`, for which the inhibition against Cannabinoid receptor 1 worked out at 83%.
Take `O=C1N=C(Nc2cccc(C(F)(F)F)c2)S/C1=C\c1cccnc1`: the IC50 – broadly, the concentration at which inhibition is half-maximal – on Cannabinoid receptor 1 was determined as 0.125 µM. Besides, the Stability with Liver microsomes [1] was 87%; in the data set with Liver microsomes [2], 96.1%. Moreover, the remaining at 0.5 h (in data set [3]; in the data set listed under Homo sapiens [6]) was above 99% throughout. Also, the fraction unbound in data set [4] is 0.034; in the data set listed under Homo sapiens [5] it was 0.058.
On to `Cc1ccc(-n2nc3c(c2NC(=O)c2ccco2)CS(=O)(=O)C3)c(C)c1`, for which, at Cannabinoid receptor 1, the inhibition turned out to be 90%.
The compound `C=C(C)Cn1c(SCC(=O)OC)nc2sc3c(c2c1=O)CC(C)(C)OC3` had an IC50 against Cannabinoid receptor 1 of 0.29 µM.
